# From PMC4059138, “Structural Basis for Multiple Sugar Recognition of Jacalin-related Human ZG16p Lectin*^([image sbox.jpg])” (The Journal of Biological Chemistry, 2014)
# Where two headings read alike, the source gives them in different places. No end group written: not given here. *: point of attachment. αMan = OC[C@H]1O[C@H](*)[C@@H](O)[C@@H](O)[C@@H]1O
# B1: Man-α-O-heptapeptide Val-Glu-Pro-(Man-α-O-Thr)-Ala-Val-Ala (peptide)
# peptide: VEPT(αMan)AVA
# notes: Glycopeptide; also called Man-O-peptide; source: synthetic peptide (solid phase, Fmoc; HPLC and Sephadex G-15)
# Legend:
# human ZG16p(21–159) [1] = target: T1, human ZG16p(21–159) (Homo sapiens, UniProt O60844); experiment: X-ray crystallography, soaking, […] Å; settings: pH 6.5; mannose-binding pocket
# T1 construct: gene ZG16; residues 21-159, expressed in E. coli as (His)6-MBP fusion, tag removed by TEV protease; monomer
# T1 sequence (O60844 21-159): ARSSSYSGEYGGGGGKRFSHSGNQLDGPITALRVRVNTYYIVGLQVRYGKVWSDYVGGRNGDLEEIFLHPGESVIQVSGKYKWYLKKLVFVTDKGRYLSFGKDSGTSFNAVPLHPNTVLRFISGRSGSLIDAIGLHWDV
# [2] = target: T2, 15N-labeled human ZG16p(21–167) (Homo sapiens, UniProt O60844); experiment: 1H-15N HSQC NMR titration; format: binding
# T2 construct: gene ZG16; residues 21-167 (signal peptide removed), 15N-labelled, E. coli pCold-PDI vector, tag removed as for the other construct; the purification says 21-159 for the same labelled protein; monomer
# T2 sequence (O60844 21-167): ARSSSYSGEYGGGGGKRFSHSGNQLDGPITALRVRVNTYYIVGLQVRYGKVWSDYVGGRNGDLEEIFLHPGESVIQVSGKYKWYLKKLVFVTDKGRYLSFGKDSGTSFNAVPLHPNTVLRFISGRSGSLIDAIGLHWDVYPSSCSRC
# Text: 1H-15N HSQC NMR titration on 15N-labeled human ZG16p(21–167)
# human ZG16p(21–159) [3] = target: T1, human ZG16p(21–159); experiment: X-ray crystallography, soaking, […] Å; settings: pH 6.5; mannose-binding pocket; remark: listed apart in the source
# [4] = target: T3, Human ZG16p(21–167), 15N-labeled (human, UniProt O60844 21-167, uniformly 15N-labeled); experiment: NMR titration; 1H-15N HSQC of 0.1–0.15 mM 15N-labeled ZG16p with increasing amounts of ligand; 298 K; PBS, pH 6.5, 10% D2O; Kd fitted from chemical shift changes (n = 3); settings: both partners purified
# T3 construct: zymogen granule protein 16 (ZG16p), human, residues 21-167; the same paragraph also calls the 15N-labeled protein ZG16p(21–159); also called zymogen granule protein 16; 15N-labeled ZG16p; source: E. coli, pCold-PDI vector, 15N-labeled Spectra 9 medium, purified (Ni-Sepharose, size exclusion chromatography)
# T3 sequence (looked up): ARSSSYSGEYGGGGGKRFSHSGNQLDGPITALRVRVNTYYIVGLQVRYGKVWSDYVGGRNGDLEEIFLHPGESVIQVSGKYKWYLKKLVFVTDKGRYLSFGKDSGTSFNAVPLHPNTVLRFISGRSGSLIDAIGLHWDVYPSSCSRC
# [5] = PBS pH 6.5, 10% D2O, 298 K, mannose-binding pocket
molecule,measurement,setting,value
C[C@@H](O[C@H]1O[C@H](CO)[C@@H](O)[C@H](O)[C@@H]1O)[C@H](N)C(=O)O [Man-O-Thr],"X-ray crystallography, soaking, 2.7 Å",human ZG16p(21–159) [1],structures of human ZG16p in complex with Man-O-Ser and Man-O-Thr were determined
same,Kd,[2],19 ± 11 mM
N[C@@H](CO[C@H]1O[C@H](CO)[C@@H](O)[C@H](O)[C@@H]1O)C(=O)O [Man-O-Ser],"X-ray crystallography, soaking, 2.1 Å",human ZG16p(21–159) [3],structures of human ZG16p in complex with Man-O-Ser and Man-O-Thr were determined
OC[C@H]1O[C@@H](O[C@H]2[C@H](O)[C@@H](CO)OC(O)[C@@H]2O)[C@H](O)[C@@H](O)[C@@H]1O (stereo partly shown) [Glcβ1–3Glc],Kd,[2]; [5],7 ± 4 mM
OC[C@H]1O[C@H](O[C@H]2[C@H](O)[C@@H](CO)OC(O)[C@H]2O)[C@@H](O)[C@@H](O)[C@@H]1O (stereo partly shown) [Manα1–3Man],Kd,[2]; [5],13 ± 7 mM
Heparin tetrasaccharide,Kd,"[2]; PBS pH 6.5, 10% D2O, 298 K, heparin site on flat surface adjacent to the mannose pocket",2 ± 1 mM
B1,Kd,[4],3 mM
